Source: US5607967A, “Treatment of alzheimer's disease with 5-(tetradecyloxy)-2-furan carboxylic acid” (Merck & Co., Inc., priority 1994, dated 1997)
Values joined by “and” are separate entries in the source; they are usually repeats but may differ in a detail not shown here. Identical values can stand only once.

Assays:
GR/NER chimeric receptor = assay: Ligand dependent transcription assay, GR/NER chimeric receptor with MMTV-luciferase reporter; format: cell-based, human
Protocol: To search for putative ligands for the NER receptor, the chimeric receptor GR/NER was prepared. […] Chimeric receptors were prepared in which the amino terminal portion of the mouse glucocorticoid receptor (mGR) that includes the DNA binding domain was fused to the putative ligand binding domains of the nuclear receptor NER to form the respective chimeric receptor GR/NER. The cDNA sequences coding for amino acid residues Arg^155 and Glu^156 of the hNER receptor (Shinar et al., NER, a new member of a gene family encoding the steroid hormone nuclear receptor; GENE (in press) were convened to the Xho I restriction site, which site was later used for the ligation to the GR cDNA sequences that coded for the DNA binding domain. Thus, the amino acid residues Arg^155 and Glu^156 of the NER receptor were convened to amino acid residues Ser^155 and His^156.
The chimera was employed in ligand dependent transactivation assays with the reporter gene MMTV-luciferase, in which the luciferase cDNA is transcribed under the control of the MMTV promoter.
Similar hybrid receptors GR/NER, GR/NUC and GR/PPAR, in identical expression plasmid backgrounds were prepared essentially as described for the construction of the GR/mPPAR and GR/NUC chimeric receptors in Schmidt et al., "Identification of a new member of the steroid hormone receptor superfamily that is activated by a peroxisome proliferator and fatty acids," Mol. Endocrinol., 6(10):1634-41, 1992, and in Boie et al., "Enantioselective activation of the peroxisome proliferator-activated receptor", J. Biol. Chem. 268(8):5530-4, 1993.
Briefly, the amino terminal portion of the mouse glucocorticoid receptor (mGR), that includes the DNA binding domain was fused to the putative ligand binding domains of the nuclear receptor NER, hNUC-I (Schmidt et al., 1992), mPPAR (Issenmann and Green, 1990) to form the respective chimeric receptors GR/NER, GR/NUC and GR/PPAR. The GR/NER chimeric receptor was constructed as described for the GR/NUC and GR/PPAR hybrid receptors (Schmidt et al., 1992; Boie et al). The cDNA sequences coding for amino acids Arg^155 and Glu^156 of the NER receptor were converted to the Xho I restriction site, that was later used for the ligation to the GR cDNA sequences that coded for the DNA binding domain. Thus, converting amino acid residues Arg^155 and Glu^156 of NER receptor to amino acid residues Ser^155 and His^156.

human NUCI receptor = target: T1, human NUCI receptor (Homo sapiens, UniProt Q03181); assay: Transcription assay, native NUC-I receptor co-transfected with MMTV-luciferase reporter
T1 sequence (Q03181 1-441): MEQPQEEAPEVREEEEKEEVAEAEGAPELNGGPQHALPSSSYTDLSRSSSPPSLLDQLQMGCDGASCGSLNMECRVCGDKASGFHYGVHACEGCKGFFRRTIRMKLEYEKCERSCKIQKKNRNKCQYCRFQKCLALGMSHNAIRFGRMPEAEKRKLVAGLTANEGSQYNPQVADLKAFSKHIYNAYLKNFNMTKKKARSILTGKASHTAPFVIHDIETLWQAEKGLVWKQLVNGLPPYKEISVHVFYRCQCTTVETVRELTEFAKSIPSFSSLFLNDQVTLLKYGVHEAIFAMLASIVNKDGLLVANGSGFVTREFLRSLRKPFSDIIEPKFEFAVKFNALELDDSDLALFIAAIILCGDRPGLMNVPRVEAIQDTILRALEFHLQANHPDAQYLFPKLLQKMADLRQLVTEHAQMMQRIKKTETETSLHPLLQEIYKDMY
Protocol: The reporter gene was the plasmid pJA358 in which the expression of firefly luciferase is regulated by two tandem repeats of the glucocorticoid hormone response element (GRE) linked to the MMTV promoter (Boie et al., 1993).
Transient transfection of COS and CV1 cells was performed as described (Schmidt 1992). Cells were plated (1.5×10^5 in 1 mL) into 12 well dishes in phenol red-free medium supplemented with activated charcoal treated fetal calf serum. The next day 0.12 mL of DNA 10 μg/ml (5 μg receptor DNA and 5 μg reporter plasmid), as a calcium phosphate precipitate, was added to the cells. Ligands were added to the cells 30 minutes after transfection. The next day (18 hours), the cells were washed and fresh ligands added. Twenty-four hours later, cell extracts were prepared and assayed for luciferase enzyme activity using the luciferase assay system (Promega Madison, Wis.). Each transfection was performed in triplicate and the luciferase activity of each sample measured in duplicate using the AutoClinilumat (Berthold Nashua, N.H.).
The transfected cells were treated with TOFA at 2 μM, 10 μM, 20 μM, and 50 μM and oleic acid at 50 μM, and 300 μM.

[1] = test system: reporter gene under the control of the promoter of SV40; assay: Luciferase expression with reporter gene under control of the SV40 promoter; format: cell-based
PC12 cells = assay: Neurite differentiation of PC12 cells; format: cell-based; details: for % Cells Bearing Neurites / Average length of neurites: 4 days, mean ±SEM
Protocol: To further study the influence of TOFA on the nervous system, we tested the effect of TOFA on the differentiation of PC12 cells. PC12 cells were plated at a density of approximately 100-200/mm^2 on collagen coated plates or dishes in RPMI medium supplemented with 10% horse serum, 5% fetal calf serum, […] streptomycin, 50 U/mL penicillin in a water saturated atmosphere of 95% air and 5% CO2, at 37° C. overnight. Medium was replaced with fresh RPMI containing 1.5% serum, 100 ng/mL NGF and the indicated concentration of TOFA or an equivalent volume of vehicle (DMSO) giving a final concentration of 0.1% DMSO.
At different time points during the treatment, cells were photographed or fixed with 10% formalin. Morphology was examined after four days of treatment with TOFA or vehicle (DMSO). The number of cells beating neurites and average length of neurites were determined with the aid of the Bioquant imaging system. […] However, as depicted in Table 6 below, NGF alone induced a 15% increase in the number of cells bearing neurites and these outgrowths reached a mean length of 20 μm. Treatment with NGF and TOFA increased the percentage of cells beating neurites to 78%. Maximal neurite generation is observed at a concentration of 10 μM TOFA.
Cells were treated with vehicle (0.1% DMSO) or various concentrations of TOFA in the presence of 100 ng/mL NGF for 4 days, and then fixed with 10% formalin. At least eighty cells from eight wells were analyzed in each group. The results are shown as the mean ±SEM. ^a p<0.01, versus vehicle by Dunnetts test.

[2] = read-out: Fold of stimulation NUC-I

CCCCCCCCCCCCCCOc1ccc(C(=O)O)o1 [TOFA, 5-(tetradecyloxy)-2-furan carboxylic acid]
Expression mediated by GR/NER (GR/NER chimeric receptor): stimulated expression | Fold of stimulation GR/NER (GR/NER chimeric receptor; 2 μM): 2.35 ± 0.09 fold | Fold of stimulation GR/NER (GR/NER chimeric receptor; 10 μM): 3.66 ± 0.40 fold | Fold of stimulation GR/NER (GR/NER chimeric receptor; 20 μM): 4.82 ± 0.28 fold | Expression of MMTV-luciferase reporter after co-transfection of native NUCI (human NUCI receptor): did not stimulate expression | fold induction at 2 µM (human NUCI receptor; [2]): 0.83 ± 0.12 | fold induction at 10 µM (human NUCI receptor; [2]): 0.94 ± 0.08 | fold induction at 50 µM (human NUCI receptor; [2]): 1.27 ± 0.06 | Expression of luciferase, reporter under SV40 promoter [1]: did not stimulate the expression of luciferase | % Cells Bearing Neurites (PC12 cells; 0.1 μM TOFA with 100 ng/mL NGF): 14.27 ± 3.51% | Average length of neurites (PC12 cells; 0.1 μM TOFA with 100 ng/mL NGF): 23.67 ± 2.86 μm | % Cells Bearing Neurites (PC12 cells; 1.0 μM TOFA with 100 ng/mL NGF): 24.07 ± 3.06% | Average length of neurites (PC12 cells; 1.0 μM TOFA with 100 ng/mL NGF): 28.63 ± 3.92 μm | % Cells Bearing Neurites (PC12 cells; 10 μM TOFA with 100 ng/mL NGF): 78% and 78.39 ± 4.89% | Average length of neurites (PC12 cells; 10 μM TOFA with 100 ng/mL NGF): 32.43 ± 2.38 μm | Concentration of maximal neurite generation (PC12 cells; with 100 ng/mL NGF): 10 µM
